Results published in US7585892B2, “Compound for promoting the growth of neural cells” (Naturewise Biotech & Medicals Corporation, priority 2006, dated 2009).

Experiments:
Format in all cases: cell-based, Wistar rat
[1] = tested on: cortical neurons; experiment: Survival of cortical neurons, MTT assay (Example 2); conditions: 300 cells/mm^2, 5 days, vs DMSO control
Procedure: (§1) Cells obtained from the suspension prepared in Example 1 were cultivated in 6-well plates coated with 30 μg/ml of poly-D-lysine (Sigma) at 300 cells/mm^2 and cultivated at 37° C., 5% CO2 and 95% relative humidity. The growth media contained compounds A, B, D, E, F, G, and H respectively and the growth media added with 5 μl of DMSO were used as control. The differentiated cells after cultivation were categorically called cortical neurons.
The experiments were repeated three times. After cultivating for 5 days, live cells were counted by a known cell-counting method (MTT assay) and the absorbance was read at 540 nm.

[2] = tested on: cortical neurons; experiment: Neurite length of cortical neurons at low cellular density (Example 4); conditions: 38 cells/mm^2, 5 days, control cells all dead
Procedure: as §1, with “cultivated at a density of 38 cells/mm^2” for “cultivated”, “μg/ml” for “μg/ml of”, “(Sigma)” for “(Sigma) at 300 cells/mm^2 and cultivated”, “D,” for “D, E, F, G,”, “G” for “H”, “are” for “after cultivation were”
The experiments were repeated three times. After cultivating for 5 days, the cells were observed under microscope and the length of the neurites was measured.

[3] = tested on: neural stem cells; experiment: Differentiation of NSCs from neurospheres, MAP-2 immunofluorescent staining (Example 5); conditions: added in the beginning, with or without adding again at seeding; 3 days + 3 days
Procedure: In the beginning of cultivating NSCs, either compound A or EGF was added into the growth media. The cells were cultivated for 3 days and the cells would aggregate to form neurospheres. One hundred μl of the cell suspension was aspirated and diluted to 1 ml. 250 μl of the supernatant which contained neurospheres was aspirated and placed on the cover slides coated with 30 μg/ml poly-D-lysine (Sigma). After all the cells had been attached onto the slides, the media was removed and replaced with the cultivating media containing compound A (FIG. 5A), EGF (FIG. 5C), or none of the growth factors (FIG. 5B, compound A in the beginning; FIG. 5D, EGF in the beginning). The cells were cultivated for another 3 days at the same condition as described above so that the cells would differentiate into cortical neurons.
The cells were stained with a known immunofluorescent staining method. To stain the neurons, a neurological marker of MAP-2 (microtubule-associated protein 2) antibody was used as the primary antibody and a fluorescent material-labeled mouse immunoglobulin that identified primary antibody was used as the second antibody. After the primary antibody that had been bound onto the neurons was identified and bound by the secondary antibody, the neurons emit fluorescent light under the excitation of a specific light source.

[4] = tested on: neural stem cells; experiment: Continuous cultivation of NSCs for 30 days, cell morphology (Example 7)
Procedure: As in Example 1, the NSCs were cultivated continuously and the growth media were replaced every seven days. DMSO-added growth media were used as the negative control. After 30 days, 100 μl of the cell suspension was aspirated and diluted to 1 ml. 250 μl of the supernatant was aspirated and placed on the slides coated with 30 μg/ml poly-D-lysine (Sigma). The cell morphology was observed thereafter under a microscope.

[5] = tested on: neural stem cells; experiment: Differentiation of NSCs with compound D and EGF, immunofluorescent staining (Example 6); conditions: compound D and EGF in the beginning, only the named substance at seeding
Procedure: The procedures were similar to Example 5. However, in the beginning of cultivating the neural stem cells, both compound D and EGF were added into the media. After all the cells had been attached onto the slides, the media were removed and replaced with the cultivating media containing compound D (FIG. 6B), EGF (FIG. 6C), none of the growth factors (FIG. 6D), or both compound D and EGF (FIG. 6A). The cells were cultivated for another 3 days and the cell morphology was observed thereafter by using immunofluorescent staining technique.

SMILES	live cells, MTT absorbance at 540 nm [1]	growth of neurons and neurites under microscope ([2]; 2.5 μM)	cell type after differentiation (MAP-2 staining) [3]	sphere formation of neural stem cells after 30 days ([4]; media replaced every seven days, control almost no surviving cells)	differentiation after 30 days culture plus another 3 days (immunofluorescence) ([4]; neurospheres grown 30 days with compound)	growth of neurons and neurites under microscope ([2]; 5 μM)	cell type after differentiation [5]
C/C(=C\Cc1c([C@@H]2CC(=O)c3c(O)cc(O)cc3O2)ccc(O)c1O)CCCC(C)(C)O [compound A]	best results	continuous growth of the neurons and the extension of the neurites can be observed	the cells will differentiate into neurons	can maintain the characteristics of forming spherical clusters	differentiating normally into neurons with the continuous outgrowth of neurites	–	–
C/C(=C\Cc1cc([C@@H]2CC(=O)c3c(O)cc(O)cc3O2)cc(O)c1O)CCCC(C)(C)O [compound B]	–	–	–	–	–	continuous growth of the neurons and the extension of the neurites can be observed	–
CC(C)=CCC/C(C)=C/Cc1c([C@@H]2CC(=O)c3c(O)cc(O)cc3O2)ccc(O)c1O [compound D]	best results	–	–	–	–	continuous growth of the neurons and the extension of the neurites can be observed	the cells will differentiate into neurons
CC(C)=CCC/C(C)=C/Cc1c(O)cc2c(c1O)C(=O)C[C@@H](c1ccc(O)c(O)c1CC=C(C)C)O2 [compound G]	best results	–	–	–	–	continuous growth of the neurons and the extension of the neurites can be observed	–
